Assay [1] addresses T1, HLA-B*07:02 (Homo sapiens, UniProt P01889). It counts as binding. Conditions: percent relative the binding of positive control peptide […]; duplicated experiments; positive binder >40%.
For assay [2], the target named is T2, HLA-C*07:01 (Homo sapiens, UniProt P10321, K90N/S123Y). Briefly: off-rate assay (t1/2). Type of assay: binding. Conditions: time points 0-8 h.
For assay [3], the target named is T3, HLA-A*30:01 (Homo sapiens, UniProt P04439, D140H/D185E/E176W/F33S/G80R/H175R/K168Q/R138E/R41S). Type of assay: binding. The following applies: percent relative the binding of positive control peptide […]; duplicated experiments; positive binder >40%.
The target of assay [4] is T2, HLA-C*07:01. Type of assay: binding. The following applies: percent relative the binding of positive control peptide […]; duplicated experiments; positive binder >40%.
The target of assay [5] is T4, HLA-A*24:02 (Homo sapiens, UniProt P04439, D101N/D140Y/D185E/E176V/E190D/F33S/G103R/G107R/I119L/I121M/I306V/K335N/L105A/L180Q/L300P/N151K/N90K/Q86E/Q94H/R106L/R138H/R89G/T104I/T345S/V100E/W191G/Y123F). It counts as binding. Conditions: time points 0-8 h.
Assay [6] deals with T4, HLA-A*24:02. Type of assay: binding. The following applies: percent relative the binding of positive control peptide […]; duplicated experiments; positive binder >40%.
The target in assay [7] is T4, HLA-A*24:02. It counts as binding.
Assay [8] has as its target T5, HLA-B*58:01 (Homo sapiens, UniProt P01889, A329T/C349S/D201E/D98Y/E176V/E187L/E204Q/E69T/G107R/I218V/I90N/K202T/L105A/L119I/N104I/N87E/Q89R/Q94S/R106L/R155S/R180L/R86G/S101N/S121R/S35A/S48A/T118I/V127L/V306I/V36M/Y140S/Y91M). It counts as binding. The following applies: time points 0-8 h.
The target in assay [9] is T5, HLA-B*58:01. It counts as binding. The following applies: percent relative the binding of positive control peptide […]; duplicated experiments; positive binder >40%.
In assay [10] the target is T6, HLA-A*02:01 (Homo sapiens, UniProt P04439, D140Y/D185E/D98H/E176V/E277Q/G131W/G231S/I119V/I121R/I166T/I218V/L300P/L318F/N151K/N90K/P208A/P217A/Q86G/Q94H/R138H/R169H/T345S). It counts as binding. Conditions: time points 0-8 h; time when 50% of peptide has dissociated.
Assay [11] concerns the target T7, HLA-A*30:02 (Homo sapiens, UniProt P04439, D101N/D140H/D185E/E176R/F33S/G80R/H175R/K168Q/Q94H/R138E/R41S/V100E). Type of assay: binding. Conditions: time points 0-8 h.
For assay [12], the target named is T6, HLA-A*02:01. Type of assay: binding. The following applies: percent relative the binding of positive control peptide […]; plate-bound monomer 0.5 µg/ml; duplicated experiments; positive binder >40%.
Assay [13] deals with T7, HLA-A*30:02. It counts as binding. Conditions: percent relative the binding of positive control peptide […]; duplicated experiments; positive binder >40%.
Assay [14] has as its target T3, HLA-A*30:01. The assay is described as follows: affinity assay (ED50). It counts as binding. Conditions: peptide titrated 10−4 to 10−9 M.
Assay [15] deals with T1, HLA-B*07:02. Briefly: affinity assay (ED50). It counts as binding. The following applies: peptide titrated 10−4 to 10−9 M.
The target of assay [16] is T7, HLA-A*30:02. Type of assay: binding.
The target of assay [17] is HLA-A*68:01 (Homo sapiens, UniProt P04439, A269V/D185E/E176V/E277Q/E87N/F33Y/G231S/I121M/I166T/I218V/L180W/L300P/L318F/N151K/P208A/P217A/Q86R/R169H/T345S). Type of assay: binding. The following applies: percent relative the binding of positive control peptide […]; duplicated experiments; positive binder >40%.
Assay [18] concerns the target T2, HLA-C*07:01. Briefly: affinity assay (ED50). It counts as binding.
Assay [19] addresses T1, HLA-B*07:02. Briefly: off-rate assay (t1/2). Type of assay: binding. Conditions: time points 0-8 h.
For assay [20], the target named is T6, HLA-A*02:01. It counts as binding. The following applies: […]; peptide quantity for 50% binding saturation.
The target of assay [21] is T3, HLA-A*30:01. The assay is described as follows: off-rate assay (t1/2). Type of assay: binding. The following applies: time points 0-8 h.
In assay [22] the target is T5, HLA-B*58:01. It counts as binding.
Assay [23] concerns the target T7, HLA-A*30:02. The following applies: percent relative the binding of a positive control peptide, cited from earlier work.
The target of assay [24] is T7, HLA-A*30:02. Conditions: cited from earlier work.
Assay [25] has as its target T1, HLA-B*07:02. Conditions: cited from earlier work.
Assay [26] has as its target T1, HLA-B*07:02. Conditions: percent relative the binding of a positive control peptide; […]; cited from earlier work.
The target of assay [27] is T7, HLA-A*30:02. The following applies: cited from earlier work. The source holds these as a separate data set.
Assay [28] addresses T1, HLA-B*07:02. The following applies: cited from earlier work. The source holds these as a separate data set.
The target in assay [29] is T3, HLA-A*30:01. The following applies: percent relative the binding of a positive control peptide; wild-type epitopes marked **; cited from earlier work.
In assay [30] the target is T3, HLA-A*30:01. The following applies: wild-type epitopes marked **; cited from earlier work.
The target of assay [31] is T3, HLA-A*30:01. The following applies: wild-type epitopes marked **; cited from earlier work. The source holds these as a separate data set.

Read-outs that look alike come from different tables or passages of the source. Marks after values point to notes of the source that are not given here.

Turning to VANNT RLWV, in assay [1], the “Bind B*07:02” value was 61%. Moreover, the “O-rate C*07:01 (t1/2)” value in assay [2] stood at 36 min. Also, the “Bind A*30:01” value in [3] came out at 141%. For the same substance, in assay [4], the “Bind C*07:01” value is given as 69%. Moreover, the “O-rate A*24:02 (t1/2)” value in assay [5] was determined as 18 min. Moreover, in assay [6], the “Bind A*24:02” value turned out to be 58%. In assay [7], the “Aff A*24:02 (ED50)” value was 4000 nM. For the same substance, the “O-rate B*58:01 (t1/2)” value in assay [8] amounted to 114 min. The “Bind B*58:01” value in [9] is recorded as 49%. In addition, the “O-rate A*02:01 (t1/2)” value in [10] is 150 min. Besides, in [11], the “O-rate A*30:02 (t1/2)” value came to 48 min. The “Bind A*02:01” value in assay [12] is 77%. Also, the “Bind A*30:02” value in [13] came to 171%. Besides, the “Aff A*30:01 (ED50)” value in assay [14] was 3E -08 M. The “Aff B*07:02 (ED50)” value in assay [15] amounted to 600 nM. Moreover, the “Aff A*30:02 (ED50)” value in assay [16] came to 100 nM. Also, the “Bind A*68:01” value in [17] was found to be 3%. Also, the “Aff C*07:01 (ED50)” value in assay [18] came out at 3E -07 M. The “O-rate B*07:02 (t1/2)” value in [19] is 42 min. Also, the “Aff A*02:01 (ED50)” value in assay [20] came to 5E -07 M. Also, the “O-rate A*30:01 (t1/2)” value in assay [21] amounted to 30 min. Also, the “Aff B*58:01 (ED50)” value in assay [22] worked out at 10 nM.
In the case of RAYHAMSST [Rv0288_67–75wt], in assay [2], the “O-rate C*07:01 (t1/2)” value is 12 min. Moreover, in [4], the “Bind C*07:01” value is 35%. Also, the “O-rate B*58:01 (t1/2)” value in assay [8] worked out at 12 min. Besides, the “Bind A*30:02” value in assay [23] ([…]) is recorded as 73** percent. Also, in assay [9], the “Bind B*58:01” value is on record as 39%. Besides, the “Aff A*30:02 (ED50)” value in assay [24] was 1000 nM. Besides, the “Aff B*07:02 (ED50)” value in assay [25] is 20000 nM. In [26], the “Bind B*07:02” value was 39* percent. The “Aff C*07:01 (ED50)” value in [18] amounted to 1e-05 M. Besides, the “O-rate A*30:02 (t1/2)” value in [27] is 72 min. The “O-rate B*07:02 (t1/2)” value in assay [28] was 48 min. The “Aff B*58:01 (ED50)” value in [22] turned out to be 10000 nM.
Turning to LVRAYHAMS [Rv0288_65–73wt], the “Bind A*30:01” value in assay [29] is on record as 158** percent. The “Bind A*30:02” value in assay [23] (wild-type epitopes marked **) was 75** percent. In assay [24] (wild-type epitopes marked **), the “Aff A*30:02 (ED50)” value is 2000 nM. Further, the “O-rate A*30:02 (t1/2)” value in assay [27] (wild-type epitopes marked **) was 60 min. In assay [30], the “Aff A*30:01 (ED50)” value is 2000 nM. Also, the “O-rate A*30:01 (t1/2)” value in assay [31] was 108 min.
